Assay results taken from ChEMBL document CHEMBL1153108, “Neolignans from Piper kadsura and their anti-neuroinflammatory activity” (Bioorg Med Chem Lett, 2010).
The source made the active and inactive calls. The calls are words filed in the database; no cut-off is given here.

Assays:
BV-2 [1] = assay: Antineuroinflammatory activity in mouse BV2 cells assessed as inhibition of LPS-induced nitric oxide production at 20 uM after 24 hrs by Griess reagent method; type: functional; conditions: for inhibition at 20 µM: BV-2, 24 h
BV-2 [2] = assay: Antineuroinflammatory activity in mouse BV2 cells assessed as inhibition of LPS-induced nitric oxide production after 24 hrs by Griess reagent method; type: functional, cell-based; conditions: for IC50: BV-2, 24 h
[3] = Effect on nitric oxide radical scavenging activity in sodium nitroprusside solution assessed as nitric oxide release after 15 mins by Griess reagent method; type: physicochemical; conditions: 0.25 h
[4] = target: T1, Nitric oxide synthase, inducible (Mus musculus) (UniProt P29477); assay: Inhibition of iNOS in LPS-stimulated mouse BV2 cells at 25 to 100 uM after 24 hrs by Griess reagent method; type: cell-based; conditions: BV-2
T1 sequence (whole entry): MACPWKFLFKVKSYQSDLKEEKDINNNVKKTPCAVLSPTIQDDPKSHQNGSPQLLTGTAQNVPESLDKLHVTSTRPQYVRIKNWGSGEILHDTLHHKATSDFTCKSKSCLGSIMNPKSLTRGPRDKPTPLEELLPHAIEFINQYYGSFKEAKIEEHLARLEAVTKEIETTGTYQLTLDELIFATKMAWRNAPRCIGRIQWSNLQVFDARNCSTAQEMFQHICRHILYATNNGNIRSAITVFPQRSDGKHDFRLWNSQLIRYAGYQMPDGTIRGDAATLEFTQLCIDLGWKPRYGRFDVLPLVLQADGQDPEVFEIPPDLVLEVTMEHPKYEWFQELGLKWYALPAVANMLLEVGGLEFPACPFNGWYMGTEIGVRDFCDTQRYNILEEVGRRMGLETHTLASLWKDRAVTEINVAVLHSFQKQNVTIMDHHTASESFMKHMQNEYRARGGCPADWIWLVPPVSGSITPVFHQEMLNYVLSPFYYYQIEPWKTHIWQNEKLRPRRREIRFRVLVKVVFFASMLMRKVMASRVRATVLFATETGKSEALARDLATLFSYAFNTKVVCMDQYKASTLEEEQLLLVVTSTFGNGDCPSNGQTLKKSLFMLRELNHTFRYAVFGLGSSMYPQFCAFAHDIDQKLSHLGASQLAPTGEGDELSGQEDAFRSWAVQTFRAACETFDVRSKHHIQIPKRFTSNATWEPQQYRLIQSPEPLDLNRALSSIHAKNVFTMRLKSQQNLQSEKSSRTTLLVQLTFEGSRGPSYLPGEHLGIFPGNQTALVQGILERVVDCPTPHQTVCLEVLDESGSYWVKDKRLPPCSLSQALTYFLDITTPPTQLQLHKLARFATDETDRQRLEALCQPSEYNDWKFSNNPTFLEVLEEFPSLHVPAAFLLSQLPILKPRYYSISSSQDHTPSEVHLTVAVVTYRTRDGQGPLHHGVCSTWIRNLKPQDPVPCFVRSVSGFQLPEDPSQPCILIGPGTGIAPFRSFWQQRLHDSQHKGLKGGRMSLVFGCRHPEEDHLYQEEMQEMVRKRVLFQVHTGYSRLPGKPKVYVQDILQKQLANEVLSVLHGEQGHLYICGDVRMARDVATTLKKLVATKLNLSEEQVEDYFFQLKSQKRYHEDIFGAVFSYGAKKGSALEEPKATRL

BV-2 [5] = assay: Inhibition of LPS-induced iNOS expression in mouse BV2 cells at 5 to 20 uM after 6 hrs by Western blot analysis; type: functional, cell-based
[6] = Cytotoxicity against mouse BV2 cells by MTT assay; type: cell-based, BV-2; conditions: read-out: INH

Row | IC50 (BV-2 [2]) [µM] | SMILES | inhibition (BV-2 [1]) | inhibition at 20 µM (BV-2 [1]) [%] | other results
1 | – | C=CCC1=C[C@]2(OC)[C@H](C)[C@@H](c3ccc(OC)c(OC)c3)[C@H](C1=O)[C@@H]2OC(C)=O | inactive | – | –
2 | 16.8 | CNC(=N)NCCC[C@H](N)C(=O)O [TILARGININE] | – | 55.3 | –
3 | 14.6 | C=CCC1=CC2=C(OC)[C@H](C1=O)[C@]2(C)[C@H](O)c1ccc2c(c1)OCO2 [PIPERKADSIN C] | – | 60.8 | Activity [3]: Not Active; inhibition (BV-2 [2]): Dose-dependent effect; Activity [4]: Active; Activity (BV-2 [5]): inactive
4 | 45.6 | C=CCC1=CC(OC)(/C(C)=C/c2ccc(OC)c(OC)c2)C(OC)=CC1=O (stereo not given) [WALLICHININE] | – | 18.5 | –
5 | 16.8 | C=CCC1=CC(OC)(/C(C)=C/c2ccc3c(c2)OCO3)C(OC)=CC1=O (stereo not given) [FUTOQUINOL] | – | 55.3 | inhibition (BV-2 [2]): Dose-dependent effect
6 | – | C=CC[C@]12C(=O)C=C(OC)[C@]3(OC)[C@@H]1[C@]3(C)[C@H]2c1ccc2c(c1)OCO2 | inactive | – | –
7 | – | C=CCC1=C[C@]2(OC)C(=CC1=O)O[C@H](c1ccc3c(c1)OCO3)[C@H]2C [DENUDATIN A] | – | – | cytotoxicity [6]: 23.2%
8 | 33.2 | C=CCc1ccc(OC)c(OC(C)C(OC(C)=O)c2ccc(OC)c(OC)c2)c1OC (stereo not given) | – | 27.2 | –
9 | – | C=CCC1=C[C@@]2(OC)C(=CC1=O)O[C@H](c1ccc(OC)c(OC)c1)[C@H]2C [KADSURENONE] | inactive | – | cytotoxicity [6]: 21.3%
